Results: US12595262B2, “PRMT5 inhibitors” (MERCK SHARP & DOHME LLC, priority 2019, dated 2026)

Legend:
[1] = biological target: T1, PRMT5 (Homo sapiens, UniProt O14744); test: PRMT5 Cell Target Engagement (TE) Assay; type: cell-based; details: MCF-7 cells, treated for 3 days; symmetrically dimethylated (SDMA) nuclear proteins by high content imaging
T1 construct: endogenous in cells; host or cells: MCF-7
Description: PRMT5 Cell Target Engagement (TE) Assay
The PRMT5 TE assay is a biomarker assay for identifying compounds that inhibit symmetric dimethylation of arginine (SDMA) of PRMT5 substrates. The following substrates have been reported for PRMT5: histone H2A and H4 R3, Histone H3 R2, Histone H3 R8, spliceosome Sm proteins, ribosomal protein RPS10, p53, FEN1, nucleoplasmin, nucleolin, EGFR and EBNA. The assay focuses on detecting symmetrically dimethylated nuclear proteins using high content imaging technology. Detection of the expression of symmetrically dimethylated nuclear proteins is through a mixture of primary rabbit monoclonal antibodies to SDMA (CST 13222), which in turn recognized by an Alexafluor 488 dye-conjugated anti-rabbit IgG secondary antibody. The IN Cell Analyzer 2200 or Opera-Phenix measures nuclear Alexafluor 488 fluorescent dye intensity that is directly related to the level of expression of symmetrically dimethylated nuclear proteins at the single cell level. Nuclear AF488 dye intensities are compared to the mean value for DMSO treated cells (MIN) to report percent of inhibition for each compound-treated well.
In this assay, the cell potency (EC50) of each compound was determined from a ten point (1:3 serial dilution; top compound concentration of 10000 nM) titration curve using the following outlined procedure. Each well of a BD falcon collagen coated black/clear bottom 384-well plate was seeded with 4000 MCF-7 cells in 30 μl media and allowed to attach for 5 h. Media is ATCC-formulated Eagle's Minimum Essential Medium, Catalog No. 30-2003. To make the complete growth medium, the following components were added to the base medium: 0.01 mg/mL human recombinant insulin; fetal bovine serum to a final concentration of 10%. Additional 30 µl of media containing 2× compounds were added to each well. Cells were treated for 3 days in 37° C. CO2 incubator. On day 3, cells were fixed with Cytofix, permeabilized with 0.4% Triton-X-100/Cytofix, and washed with D-PBS without Ca/Mg. Cells were blocked with Licor Odessey blocking reagent for 1 h at room temperature, followed by incubation with anti-SDMA (1:1000) antibody at 4° C. overnight. 1° antibody was removed, followed by three washings with DPBS without Ca/Mg and 0.05% Tween20. Hoechst (5 μg/mL), Cell Mask deep stain (1:2000) and Alexa488-conjugated goat anti-rabbit IgG (2 μg/mL) was added for 1 h at room temperature. A final washing step (three washes) was performed before sealing plate for imaging on In Cell Analyzer 2200 or Opera-Phenix. Images from analyzer were uploaded to Columbus (at WP or BOS) for image analysis. IC50 values were determined by 4 parameters robust fit of percent fluorescence units vs. (Log10) compound concentrations.

[2] = biological target: T2, PRMT5-MEP50 enzyme complex (Homo sapiens, UniProt O14744); test: PRMT5-MEP50 Enzyme Methylation Assay; type: biochemical; details: recombinant full-length PRMT5-MEP50 1.0 nM, 75 nM biotinylated H4R3(Me1) peptide, 15 μM SAM; 60 minutes pre-incubation, 150 minutes at 37° C.
T2 construct: 1.25 nM of Full-length (FL)-PRMT5-MEP50 enzyme complex; made in house; host or cells: baculovirus-transfected Sf21 cells
Protocol: PRMT5-MEP50 Enzyme Methylation Assay
PRMT5-MEP50 biochemical assay is a direct measurement of the methylation activity of the enzyme complex on a short peptide substrate derived from the N-terminus of H4 histone. Methylation experiment was performed with recombinant PRMT5-MEP50 protein complex. The assessment of inhibitory effect of small molecules was measured by the effectiveness of the compounds to inhibit this reaction (EC50).
In this assay, the potency (EC50) of each compound was determined from a twenty-point (1:2 serial dilution; top compound concentration of 100000 nM) titration curve using the following outlined procedure. To each well of a white ProxiPlus 384 well-plate, 100 nL of compound (1% DMSO in final assay volume of 10 μL) was dispensed, followed by the addition of 8 μL of 1× assay buffer (50 mM Bicine pH 8.0, 1 mM DTT, 0.004% Tween20, 0.01% BSA) containing 1.25 nM of Full-length (FL)-PRMT5-MEP50 enzyme complex (recombinant proteins from baculovirus-transfected Sf21 cells: FL-PRMT5; MW=[…] and FL-MEP50; MW=38614) and 1 μL of 150 μM S-(5′-Adenosyl)-L-Methionine Chloride (SAM). Plates were sealed and placed in a 37° C. humidified chamber for a 60 minutes pre-incubation with compound. Subsequently, each reaction was initiated by the addition of 1 μL 1× assay buffer containing 750 nM biotinylated H4R3(Me1) peptide. The final reaction in each well of 10 μL consists of 1.0 nM PRMT5-MEP50, 75 nM biotinylated-peptide, and 15 μM SAM. Methylation reactions were allowed to proceed for 150 minutes in a sealed plate at 37° C. Reactions were immediately quenched by the addition of 1 μL of 5% formic acid. Plates were then frozen and shipped to SAMDITM Tech Inc. to determine the percent conversion from H4R3(Me1) to H4R3(Me2). Dose-response curves were generated by plotting percent effect (% product conversion; Y-axis) vs. Log10 compound concentrations (X-axis). EC50 values were determined by non-linear regression according to models for sigmoidal (4 parameters) dose-response curves.

T1 sequence (O14744 whole entry): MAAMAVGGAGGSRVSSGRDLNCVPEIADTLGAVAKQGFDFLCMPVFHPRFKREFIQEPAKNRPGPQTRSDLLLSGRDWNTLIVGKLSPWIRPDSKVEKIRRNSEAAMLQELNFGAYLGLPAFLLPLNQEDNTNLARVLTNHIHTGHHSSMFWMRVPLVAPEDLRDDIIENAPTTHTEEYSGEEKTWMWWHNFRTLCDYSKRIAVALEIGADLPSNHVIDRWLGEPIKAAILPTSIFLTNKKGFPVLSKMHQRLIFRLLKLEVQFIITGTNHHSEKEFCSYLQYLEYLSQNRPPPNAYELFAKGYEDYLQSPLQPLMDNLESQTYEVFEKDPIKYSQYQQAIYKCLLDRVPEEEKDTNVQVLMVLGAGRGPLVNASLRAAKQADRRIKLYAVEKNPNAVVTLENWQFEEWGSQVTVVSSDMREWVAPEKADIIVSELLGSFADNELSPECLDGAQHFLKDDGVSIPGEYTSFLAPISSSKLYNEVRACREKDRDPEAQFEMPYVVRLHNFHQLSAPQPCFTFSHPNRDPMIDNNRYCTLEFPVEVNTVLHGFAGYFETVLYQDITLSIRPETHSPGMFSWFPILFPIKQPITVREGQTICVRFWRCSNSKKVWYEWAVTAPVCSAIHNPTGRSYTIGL
T1 sequence (Q9BQA1 whole entry partner): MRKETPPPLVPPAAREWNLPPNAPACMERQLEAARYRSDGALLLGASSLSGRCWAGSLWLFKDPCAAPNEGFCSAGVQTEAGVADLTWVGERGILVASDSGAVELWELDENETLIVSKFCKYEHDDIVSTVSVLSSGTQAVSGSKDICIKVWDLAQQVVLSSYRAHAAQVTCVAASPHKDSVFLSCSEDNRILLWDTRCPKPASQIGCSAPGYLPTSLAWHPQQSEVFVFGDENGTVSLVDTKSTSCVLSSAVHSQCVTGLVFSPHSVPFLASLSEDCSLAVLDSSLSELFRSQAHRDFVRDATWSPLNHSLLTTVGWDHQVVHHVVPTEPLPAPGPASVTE
T2 sequence (O14744 whole entry): as the sequence (O14744 whole entry) above
T2 sequence (Q9BQA1 whole entry partner): as the sequence (Q9BQA1 whole entry partner) above

Question: Which EC50 [1] does the source give for [2H]C1([2H])c2ccccc2CCN1[C@H]1CCN(C(=O)c2cc(NC3CCN(C(C)=O)CC3)ncc2F)C[C@@H]1O [Example 1b, 1-(4-((4-((3S,4S)-4-(3,4-dihydroisoquinolin-2(1H)-yl-1,1-d2)-3-hydroxypiperidine-1-carbonyl)-5-fluoropyridin-2-yl)amino)piperidin-1-yl)ethan-1-one] here?
Answer: 2 nM

Question: What about the EC50 [2] of the same molecule?
Answer: 0.9 nM

Question: For CCc1nc2nc(C(=O)N3CC[C@H](N4CCc5ccccc5C4)[C@@H](O)C3)cn2cc1Br [Example 4, (6-bromo-7-ethylimidazo[1,2-a]pyrimidin-2-yl)((3S,4S)-4-(3,4-dihydroisoquinolin-2(1H)-yl)-3-hydroxypiperidin-1-yl)methanone], which EC50 [1] is on record?
Answer: 15 nM

Question: What about the EC50 [2] of the same molecule?
Answer: 1.5 nM

Question: For [2H]C1([2H])c2ccccc2CCN1[C@@H]1CCN(C(=O)c2cc(NC3CCN(C(C)=O)CC3)ncc2F)C[C@H]1O [Example 1c, 1-(4-((4-((3R,4R)-4-(3,4-dihydroisoquinolin-2(1H)-yl-1,1-d2)-3-hydroxypiperidine-1-carbonyl)-5-fluoropyridin-2-yl)amino)piperidin-1-yl)ethan-1-one], which EC50 [1] is on record?
Answer: 165 nM

Question: How did the EC50 [1] turn out when O=C(c1cn2cc(C3CC3)cnc2n1)N1CC[C@H](N2CCc3ccccc3C2)[C@@H](O)C1 [Example 3, (6-cyclopropylimidazo[1,2-a]pyrimidin-2-yl)((3S,4S)-4-(3,4-dihydroisoquinolin-2(1H)-yl)-3-hydroxypiperidin-1-yl)methanone] was run?
Answer: 6.8 nM

Question: And the EC50 [2]?
Answer: 1.3 nM

Question: What does the source list for CC(=O)N1CCC(Nc2cc(C(=O)N3CC[C@H](N4CCc5ccccc5C4)[C@@H](O)C3)c(F)cn2)CC1 [Example 1, 1-{4-[(4-{[(3S,4S)-4-(3,4-dihydroisoquinolin-2(1H)-yl)-3-hydroxypiperidin-1-yl]carbonyl}-5-fluoropyridin-2-yl)amino]piperidin-1-yl}ethanone]?
Answer: EC50 [1]: 6.9 nM; EC50 [2]: 0.9 nM

Question: With O=C(c1cn2cc(C3CC3(F)F)cnc2n1)N1CC[C@H](N2CCc3ccccc3C2)[C@@H](O)C1 (stereo partly drawn) [Example 2, (6-(2,2-difluorocyclopropyl)imidazo[1,2-a]pyrimidin-2-yl)((3S,4S)-4-(3,4-dihydroisoquinolin-2(1H)-yl)-3-hydroxypiperidin-1-yl)methanone] as the molecule, how does the EC50 [1] read?
Answer: 4.7 nM

Question: And the EC50 [2]?
Answer: 1.6 nM
